pIC50: −log10 of the molar value. Read-outs that look alike come from different tables or passages of the source. Where a SMILES comes first, the peptide text is derived from it. [ ]: non-standard residue; d: D form. Dolaproine = CO[C@@H]([C@@H]1CCCN1)[C@@H](C)C(=O)O; Dil = CC[C@H](C)[C@H](NC)[C@@H](CC(=O)O)OC; NMeV = CN[C@H](C(=O)O)C(C)C
Test system: BT474 (HER2+) cell line
Assay: Standard cellular cytotoxicity assay, BT474 (HER2+) cell line
Type: cell-based, human
Excerpt: The cytotoxicity of tubulysins T1 and T2 was compared to the cytotoxicity of MMAF using the BT474 (HER2+) cell line in a standard cellular cytotoxicity assay.

Row | SMILES | pIC50 (Homo sapiens, BT-474) | pIC50
1 | CC[C@H](C)[C@H](NC(=O)[C@H]1CCCCN1C)C(=O)N(C)[C@H](C[C@@H](OC(C)=O)c1nc(C(=O)O)cs1)C(C)C [Entry T1] | 7.96 | –
2 | CC[C@H](C)[C@H](NC(=O)[C@H]1CCCCN1C)C(=O)N(C)[C@H](C[C@@H](OC(C)=O)c1nc(C(=O)N[C@@H](Cc2ccccc2)C[C@H](C)C(=O)O)cs1)C(C)C [Entry T2] | > 10.00 | –
3 | CC[C@H](C)[C@@H]([C@@H](CC(=O)N1CCC[C@H]1[C@H](OC)[C@@H](C)C(=O)N[C@@H](Cc1ccccc1)C(=O)O)OC)N(C)C(=O)[C@@H](NC(=O)[C@@H](NC)C(C)C)C(C)C [MMAF, monomethylauristatin F] (H-[NMeV]V[Dil][Dolaproine]F-OH) | – | 7.03
